The values below come from article PMC2924234 (Acta Crystallographica Section D: Biological Crystallography, 2006).

One data set has as its system male CF-1 mice. The note with it: mouse, in vivo.
In a further data set the test system is potassium ion-channel. The note with it: cited from earlier work.

Take conkunitzin-S1: in the data set on male CF-1 mice, the “95% confidence limits of the ED50 of seizure activity” value lay within 0.3 to 2 nmol, the “Behaviour observed after injection” value is “spastic running followed by tonic extension seizures” and the “ED50 of seizure activity” value is listed as 1 nmol per mouse. In the data set with potassium ion-channel, the Pore-blocking activity entry is on record as “potassium ion-channel pore-blocking toxin”.
